Source: US20240351986A1, “UREA COMPOUND CONTAINING 2-HETEROAROMATIC RING SUBSTITUTION, PREPARATION METHOD THEREFOR AND USE THEREOF” (SHANGHAI INSTITUTE OF MATERIA MEDICA, CHINESE ACADEMY OF …, priority 2021, published 2024)

Molecular target: T1, Recombinant human CDK9/cyclin T1 (Homo sapiens, UniProt P50750)
T1 construct: purchased Carna bioscience 04-110
Assay: CDK9 enzyme inhibitory activity (ADP-Glo kinase assay)
Format: biochemical
Settings: CDK9 enzyme activity, average of two independent repeats; for inhibition at 0.01 µM: read-out: Inhibition rate at different concentrations (%) 10 nM; for inhibition at 0.1 µM: compound 100 nM, read-out: Inhibition rate at different concentrations (%) 100 nM
Procedure: Experimental method: Recombinant human CDK9/cyclin T1 (Carna bioscience, Cat #04-110) was diluted with dilution buffer (20 mM Tris HCl (pH 7.5), 0.02% Triton X-100, 0.01% BSA, 2 mM DTT, 0.5 mM Na3VO4, 10% Glycerol) to […], the substrates CDK7/9 tide (ThermoFisher, Cat #PV5090) and ATP (sigmaaldrich, Cat #A1852) were diluted with assay buffer (25 mM Tris HCl (pH7.5), 10 mM MgCl2, 0.5 mM EGTA (pH 8), 0.5 mM Na3VO4, 5 mMb-glycerol phosphate, 0.1% Triton X-100, 2.5 mM DTT) to final concentrations of 100 μM and […] respectively, aliquot and set aside. 2 μl of diluted recombinant human CDK9/cyclin T1, 1 μl of test compound, and 2 μl of diluted substrate CDK7/9 tide containing ATP were added to the 384-well plate. […] The positive control was the well in which enzyme and substrate were co-incubated, and the negative control was the well in which dilution buffer and substrate were co-incubated. The inhibition rate was calculated according to the following formula.

T1 sequence (P50750 whole entry): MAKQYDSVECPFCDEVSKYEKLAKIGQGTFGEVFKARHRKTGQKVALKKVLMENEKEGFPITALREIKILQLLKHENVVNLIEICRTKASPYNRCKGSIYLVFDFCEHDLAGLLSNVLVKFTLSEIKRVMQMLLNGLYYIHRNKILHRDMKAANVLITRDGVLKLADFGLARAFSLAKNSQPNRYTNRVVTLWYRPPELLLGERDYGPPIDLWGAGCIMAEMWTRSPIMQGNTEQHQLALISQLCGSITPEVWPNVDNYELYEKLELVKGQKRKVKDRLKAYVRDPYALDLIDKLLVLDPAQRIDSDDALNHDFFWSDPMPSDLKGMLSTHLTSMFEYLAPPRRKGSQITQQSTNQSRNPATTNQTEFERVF
T1 sequence (O60563 whole entry partner): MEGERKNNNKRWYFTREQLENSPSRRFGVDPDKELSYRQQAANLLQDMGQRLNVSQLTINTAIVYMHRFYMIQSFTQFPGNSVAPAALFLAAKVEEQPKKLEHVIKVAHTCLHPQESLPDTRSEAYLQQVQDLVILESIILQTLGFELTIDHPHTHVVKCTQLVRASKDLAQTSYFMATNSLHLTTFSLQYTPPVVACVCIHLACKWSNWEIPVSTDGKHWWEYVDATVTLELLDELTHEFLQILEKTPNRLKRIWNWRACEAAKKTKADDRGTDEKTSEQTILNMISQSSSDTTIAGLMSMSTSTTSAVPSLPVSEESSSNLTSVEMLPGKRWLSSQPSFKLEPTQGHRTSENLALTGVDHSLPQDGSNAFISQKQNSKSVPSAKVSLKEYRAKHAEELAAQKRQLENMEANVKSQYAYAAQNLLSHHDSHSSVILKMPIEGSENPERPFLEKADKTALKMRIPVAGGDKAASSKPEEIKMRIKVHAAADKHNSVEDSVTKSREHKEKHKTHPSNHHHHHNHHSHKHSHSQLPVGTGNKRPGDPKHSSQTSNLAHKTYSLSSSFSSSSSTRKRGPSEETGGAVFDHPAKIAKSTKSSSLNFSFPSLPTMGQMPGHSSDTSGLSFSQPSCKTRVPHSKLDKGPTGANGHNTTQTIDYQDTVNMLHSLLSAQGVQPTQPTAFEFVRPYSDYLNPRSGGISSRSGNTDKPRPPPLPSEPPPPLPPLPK

inhibition at 0.01 µM (compound 10 nM) [%] | inhibition at 0.1 µM [%] | Inhibition rate at different concentrations (%) 10 nM (compound 10 nM, 0.01 µM) [%] | SMILES
16.5 | 62.8 | – | COc1cc(F)ccc1-c1ccnc(NC(=O)NC2CC(O)C2)c1 (stereo not shown) [Example 36, 1-(4-(4-fluoro-2-methoxyphenyl)pyridin-2-yl)-3((1r,3r)-3-hydroxycyclobutyl)urea]
55 | 86.5 | – | CC1(C)Cc2c(-c3cc(NC(=O)NC4CCC(NCCOC(F)(F)F)CC4)ncc3Cl)cnn2C1 (stereo not shown) [Example 57]
38.1 | 70.2 | – | COc1cc(F)ccc1-c1ccnc(NC(=O)NC2CCC(NC(C)=O)CC2)n1 (stereo not shown) [Example 41, N-((1r,4r)-4-(3-(4-(4-fluoro-2-methoxyphenyl)pyrimidin-2-yl)ureido)cyclohexyl)acetamide]
25 | 91 | – | CC1(C)Cc2c(-c3cc(NC(=O)NC4CCCC(NC(=O)OC(C)(C)C)C4)ncc3Cl)cnn2C1 (stereo not shown) [Example 76, tert-butyl (3-(3-(5-chloro-4-(5,5-dimethyl-5,6-dihydro-4H-pyrrolo[1,2-b]pyrazol-3-yl)pyridin-2-yl)ureido)cyclohexyl)carbamate]
53 | 87 | – | CC(=O)NC1CCCC(NC(=O)Nc2cc(-c3cnn4c3CC(C)(C)C4)c(Cl)cn2)C1 (stereo not shown) [Example 79, N-(3-(3-(5-chloro-4-(5,5-dimethyl-5,6-dihydro-4H-pyrrolo[1,2-b]pyrazol-3-yl)pyridin-2-yl)ureido)cyclohexyl)acetamide]
50.1 | 88.3 | – | CC(=O)NC1CCC(NC(=O)Nc2cc(-c3cnc4n3CC(C)(C)C4)c(Cl)cn2)CC1 (stereo not shown) [Example 86, N-((1r,4r)-4-(3-(5-chloro-4-(6,6-dimethyl-6,7-dihydro-5H-pyrrolo [1,2-a]imidazol-3-)pyridin-2-yl)ureido)cyclohexyl)acetamide]
60.2 | 92.8 | – | CC(=O)NC1CCC(NC(=O)Nc2cc(-c3cnn4c3CC(C)(C)C4)c(F)cn2)CC1 (stereo not shown) [Example 51, N-((1r,4r)-4-(3-(4-(5,5-dimethyl-5,6-dihydro-4H-pyrrolo[1,2-b]pyrazol-3-yl)-5-fluoropyridin-2-yl)ureido)cyclohexyl)acetamide]
7 | 54 | – | COCCNCCCNC(=O)Nc1cc(-c2ccc(F)cc2OC)ccn1 [Example 34, 1-(4-(4-fluoro-2-methoxyphenyl)pyridin-2-yl)-3-(3-((2-methoxyethyl)amino)propyl)urea]
32 | 74.1 | – | COc1cc(-c2ccnc(NC(=O)NC3CCC(N)CC3)c2)ccc1F (stereo not shown) [Example 6, 1-((1r,4r)-4-aminocyclohexyl)-3-(4-(4-fluoro-3-methoxyphenyl)pyridin-2-yl)urea]
19.2 | 69.1 | – | NC1CCC(NC(=O)Nc2cc(-c3ccc(F)cc3OC(F)(F)F)ccn2)CC1 (stereo not shown) [Example 12, 1-((1r,4r)-4-aminocyclohexyl)-3-(4-(4-fluoro-2-trifluoromethoxyphenyl)pyridin-2-yl) urea]
28.7 | 61.2 | – | COc1cc(F)ccc1-c1cc(NC(=O)NC2CCC(NC3CCOC3)CC2)ncc1Cl (stereo not shown) [Example 25, 1-(5-chloro-4-(4-fluoro-2-methoxyphenyl)pyridin-2-yl)-3-((1r,4r)-4-((tetrahydrofuran-3-yl)amino)cyclohexyl)urea]
39.7 | 78.5 | – | CC(=O)NC1CCC(NC(=O)Nc2cc(-c3cnn4c3CC(C)(C)C4)c(C)cn2)CC1 (stereo not shown) [Example 52, N-((1r,4r)-4-(3-(4-(5,5-dimethyl-5,6-dihydro-4H-pyrrolo[1,2-b]pyrazol-3-yl-S-methylpyridin-2-yl)ureido)cyclohexyl)acetamide]
51.1 | 91.5 | – | CC1(C)Cc2c(-c3ccnc(NC(=O)NC4CCC(N)CC4)c3)cnn2C1 (stereo not shown) [Example 15, 1-((1r,4r)-4-aminocyclohexyl)-3-(4-(5,5-dimethyl-5,6-dihydro-4H-pyrrole [1,2-b]pyrazole-3-yl)pyridin-2-yl) urea]
58.3 | 85.1 | – | CC1(C)Cc2c(-c3cc(NC(=O)NC4CCC(NCCF)CC4)ncc3Cl)cnn2C1 (stereo not shown) [Example 61, 1-(5-chloro-4-(5,5-dimethyl-5,6-dihydro-4H-pyrrolo[1,2-b]pyrazol-3-yl)pyridin-2-yl)-3-((1r,4r)-4-((2-fluoroethyl)amino)cyclohexyl)urea]
63.7 | 92.7 | – | CN(C)C1CCC(NC(=O)Nc2cc(-c3cnn4c3CC(C)(C)C4)c(Cl)cn2)CC1 (stereo not shown) [Example 89, 1-(5-chloro-4-(5,5-dimethyl-5,6-dihydro-4H-pyrrolo[1,2-b]pyrazol-3-yl)pyridin-2-yl)-3-((1r,4r)-4-(dimethylamino)cyclohexyl)urea]
11.9 | 81 | – | COc1cc(F)ccc1-c1ccnc(NC(=O)Nc2ccc(F)nc2)c1 [Example 33, 1-(4-(4-fluoro-2-methoxyphenyl)pyridin-2-yl)-3(6-fluoropyridin-3-yl)urea]
– | 96 | 83.0 | CC1(C)Cc2c(-c3cc(NC(=O)NC4CCC(N)CC4)ncc3Cl)cnn2C1 (stereo not shown) [Example 44, 1-((1r,4r)-4-aminocyclohexyl)-3-(5-chloro-4-(5,5-dimethyl-5,6-dihydro-4H-pyrrole[1,2-b]pyrazole-3-yl)pyridin-2-yl)urea]
63 | 92 | – | CC(=O)N[C@H]1CC[C@H](NC(=O)Nc2cc(-c3cnn4c3CC(C)(C)C4)c(Cl)cn2)C1 (stereo in doubt) [Example 74, N-((1S,3S)-3-(3-(5-chloro-4-(5,5-dimethyl-5,6-dihydro-4H-pyrrolo[1,2-b]pyrazol-3-yl)pyridin-2-yl)ureido)cyclopentyl)acetamide]
39.5 | 66.3 | – | CC(=O)NC1CCC(NC(=O)Nc2cc(-c3cnn4c3CCC4)c(Cl)cn2)CC1 (stereo not shown) [Example 84, N-((1r,4r)-4-(3-(5-chloro-4-(5,6-dihydro-4H-pyrrolo[1,2-b]pyrazol-3-yl)pyridin-2-yl)ureido)cyclohexyl)acetamide]
28 | 56 | – | CC1(C)Cc2c(-c3cc(NC(=O)NC4CCC(NC(=O)OC(C)(C)C)CC4)ncc3Cl)cnn2C1 (stereo not shown) [Example 64, tert-butyl (1s,4s)-4-(3-(5-chloro-4-(5,5-dimethyl-5,6-dihydro-4H-pyrrolo [1,2-b]pyrazol-3-yl)pyridin-2-yl)ureido)cyclohexylcarbamate]
28.9 | 72 | – | CC(=O)NC1CCC(NC(=O)Nc2cc(-c3cnc(C)n3C(C)C)c(Cl)cn2)CC1 (stereo not shown) [Example 85, N-((1r,4r)-4-(3-(5-chloro-4-(1-isopropyl-2-methyl-1H-imidazol-5-yl)pyridin-2-yl)ureido)cyclohexyl)acetamide]
45.1 | 93.2 | – | COc1cc(F)ccc1-c1ccnc(NC(=O)NC2CCC(NC(C)=O)CC2)c1 (stereo not shown) [Example 4, N-((1r,4r)-4-(3-(4-(4-fluoro-2-methoxyphenyl)pyridin-2-yl)ureido)cyclohexyl)acetamide]
23.1 | 61.3 | – | NC1CCC(NC(=O)Nc2cc(-c3ccc(F)c4ccoc34)ccn2)CC1 (stereo not shown) [Example 8, 1-((1r, 4r)-4-aminocyclohexyl)-3-(4-(4-fluoro-benzofuran-7-yl)pyridin-2-yl) urea]
